Data as given in the supplement of paper PMC10627819.

Tests used:
B. subtilis 168 [1] = experiment: fitness (endpoint OD595 vs no drug) (fraction); higher = more growth
Outline: (§1)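 Fitness was defined as the optical density at the transition into stationary phase relative to the robust mean of no-drug control wells. Values were capped at 1. Cultures were started at OD595 0.01 in 384-well plates (30 µl, or 55 µl for S. pneumoniae) in TSB, LB Lennox or CY at 37 °C. OD595 was recorded every 30 min over 14 h, with the first reading subtracted as background.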

S. aureus DSM 20231 [2] = experiment: as above
Outline: as §1

S. pneumoniae D39V [3] = experiment: as above
Outline: as §1

S. aureus Newman = experiment: Bliss interaction score (quartile over a dose matrix) (fitness difference); higher = more antagonism (negative = synergy)
Outline: (§2)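 The Bliss score is observed minus expected fitness under the product model, reported as quartiles over technical, biological and donor/recipient replicates. Fitness is the OD595 at entry into stationary phase divided by the plate's robust no-drug mean and capped at 1. Single-drug fitness was inferred from combination data.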

B. subtilis 168 [4] = experiment: as above
Outline: as §2

S. aureus DSM 20231 [5] = experiment: as above
Outline: as §2

S. pneumoniae D39V [6] = experiment: as above
Outline: as §2
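Throughout, for Bliss interaction score (quartile over a dose matrix): first quartile when negative (synergy) and third quartile when positive (antagonism).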

CCC[C@@H]1C[C@@H](C(=O)N[C@@H]([C@H]2O[C@H](SC)[C@H](O)[C@@H](O)[C@H]2O)[C@@H](C)O)N(C)C1 [Lincomycin] + CC(=O)NC[C@H]1CN(c2ccc(N3CCOCC3)c(F)c2)C(=O)O1 [Linezolid]
Conditions	fitness
B. subtilis 168 [1], first compound 0.1 µg/mL, partner 0.5 µg/mL	0.0626
B. subtilis 168 [1], first compound 0.2 µg/mL, partner 0.125 µg/mL	0.643
B. subtilis 168 [1], first compound 0.2 µg/mL, partner 0.5 µg/mL	0.0527
B. subtilis 168 [1], first compound 0.4 µg/mL, partner 0.125 µg/mL	0.629
B. subtilis 168 [1], first compound 0.4 µg/mL, partner 0.5 µg/mL	0.0589
S. aureus DSM 20231 [2], first compound 0.1 µg/mL, partner 0.125 µg/mL	0.824
S. aureus DSM 20231 [2], first compound 0.1 µg/mL, partner 0.25 µg/mL	0.628
S. aureus DSM 20231 [2], first compound 0.1 µg/mL, partner 0.5 µg/mL	0.276
S. aureus DSM 20231 [2], first compound 0.2 µg/mL, partner 0.125 µg/mL	0.583
S. aureus DSM 20231 [2], first compound 0.2 µg/mL, partner 0.5 µg/mL	0.192
S. aureus DSM 20231 [2], first compound 0.4 µg/mL, partner 0.125 µg/mL	0.244
S. aureus DSM 20231 [2], first compound 0.4 µg/mL, partner 0.25 µg/mL	0.146
S. aureus DSM 20231 [2], first compound 0.4 µg/mL, partner 0.5 µg/mL	0.0893
S. pneumoniae D39V [3], first compound 0.2 µg/mL, partner 0.105 µg/mL	0.717
S. pneumoniae D39V [3], first compound 0.2 µg/mL, partner 0.21 µg/mL	0.658
S. pneumoniae D39V [3], first compound 0.2 µg/mL, partner 0.42 µg/mL	0.519
S. pneumoniae D39V [3], first compound 0.215 µg/mL, partner 0.2 µg/mL	0.716
S. pneumoniae D39V [3], first compound 0.215 µg/mL, partner 0.4 µg/mL	0.649
S. pneumoniae D39V [3], first compound 0.215 µg/mL, partner 0.8 µg/mL	0.413
S. pneumoniae D39V [3], first compound 0.4 µg/mL, partner 0.105 µg/mL	0.627
S. pneumoniae D39V [3], first compound 0.4 µg/mL, partner 0.21 µg/mL	0.601
S. pneumoniae D39V [3], first compound 0.4 µg/mL, partner 0.42 µg/mL	0.234
S. pneumoniae D39V [3], first compound 0.43 µg/mL, partner 0.2 µg/mL	0.642
S. pneumoniae D39V [3], first compound 0.43 µg/mL, partner 0.4 µg/mL	0.583
S. pneumoniae D39V [3], first compound 0.43 µg/mL, partner 0.8 µg/mL	0.306
S. pneumoniae D39V [3], first compound 0.8 µg/mL, partner 0.105 µg/mL	0.278
S. pneumoniae D39V [3], first compound 0.8 µg/mL, partner 0.21 µg/mL	0.128
S. pneumoniae D39V [3], first compound 0.8 µg/mL, partner 0.42 µg/mL	0.0738
S. pneumoniae D39V [3], first compound 0.86 µg/mL, partner 0.2 µg/mL	0.392
S. pneumoniae D39V [3], first compound 0.86 µg/mL, partner 0.4 µg/mL	0.311
S. pneumoniae D39V [3], first compound 0.86 µg/mL, partner 0.8 µg/mL	0.13

fitness, one replicate
Conditions	first compound 0.1 µg/mL	first compound 0.2 µg/mL	first compound 0.4 µg/mL	first compound 0.8 µg/mL	first compound 1.6 µg/mL
B. subtilis 168 [1], partner 0.0625 µg/mL	–	–	0.87	0.867	0.847
B. subtilis 168 [1], partner 0.125 µg/mL	–	–	–	0.633	0.638
B. subtilis 168 [1], partner 0.25 µg/mL	–	–	–	0.102	0.0942
S. aureus DSM 20231 [2], partner 1 µg/mL	0.0602	0.0846	0.0423	–	–

Conditions	Bliss interaction score
B. subtilis 168 [4]	0.158
S. aureus DSM 20231 [5]	-0.069
S. aureus Newman	-0.088
S. pneumoniae D39V [6]	0.0482

CCC[C@@H]1C[C@@H](C(=O)N[C@@H]([C@H]2O[C@H](SC)[C@H](O)[C@@H](O)[C@H]2O)[C@@H](C)O)N(C)C1 [Lincomycin] + CCN(CC)CCOC(=O)c1ccc(N)cc1 [Procaine]
fitness
Conditions	partner 85.5 µg/mL	partner 171 µg/mL	partner 342 µg/mL
B. subtilis 168 [1], first compound 0.1 µg/mL	0.917	0.932	0.891
B. subtilis 168 [1], first compound 0.2 µg/mL	0.899	0.922	0.862
B. subtilis 168 [1], first compound 0.4 µg/mL	0.875	0.875	0.853
S. aureus DSM 20231 [2], first compound 0.1 µg/mL	0.844	0.926	0.863
S. aureus DSM 20231 [2], first compound 0.2 µg/mL	0.749	0.837	0.821
S. aureus DSM 20231 [2], first compound 0.4 µg/mL	0.391	0.39	0.363
S. pneumoniae D39V [3], first compound 0.215 µg/mL	0.812	0.783	0.784
S. pneumoniae D39V [3], first compound 0.43 µg/mL	0.717	0.695	0.697
S. pneumoniae D39V [3], first compound 0.86 µg/mL	–	0.39	0.495

fitness, S. pneumoniae D39V [3], one replicate
Conditions	first compound 0.2 µg/mL	first compound 0.4 µg/mL	first compound 0.8 µg/mL
partner 85.5 µg/mL	0.748	0.673	0.0927
partner 171 µg/mL	0.809	0.693	0.148
partner 342 µg/mL	0.746	0.665	0.126

Conditions	Bliss interaction score
B. subtilis 168 [4]	0.0306
S. aureus DSM 20231 [5]	0.0558
S. aureus Newman	0.0563
S. pneumoniae D39V [6]	-0.0294

CCC[C@@H]1C[C@@H](C(=O)N[C@@H]([C@H]2O[C@H](SC)[C@H](O)[C@@H](O)[C@H]2O)[C@@H](C)O)N(C)C1 [Lincomycin] + CN1C2=CC=CC=C2N=C3C1=CC=CC3=O [Pyocyanin]
Conditions	fitness
B. subtilis 168 [1], first compound 0.1 µg/mL, partner 1.25 µg/mL	0.899
B. subtilis 168 [1], first compound 0.1 µg/mL, partner 2.5 µg/mL	0.823
B. subtilis 168 [1], first compound 0.1 µg/mL, partner 5 µg/mL	0.694
B. subtilis 168 [1], first compound 0.2 µg/mL, partner 1.25 µg/mL	0.862
B. subtilis 168 [1], first compound 0.2 µg/mL, partner 2.5 µg/mL	0.8
B. subtilis 168 [1], first compound 0.2 µg/mL, partner 5 µg/mL	0.668
B. subtilis 168 [1], first compound 0.4 µg/mL, partner 1.25 µg/mL	0.827
B. subtilis 168 [1], first compound 0.4 µg/mL, partner 2.5 µg/mL	0.792
B. subtilis 168 [1], first compound 0.4 µg/mL, partner 5 µg/mL	0.66
S. aureus DSM 20231 [2], first compound 0.1 µg/mL, partner 1.25 µg/mL	0.794
S. aureus DSM 20231 [2], first compound 0.1 µg/mL, partner 2.5 µg/mL	0.883
S. aureus DSM 20231 [2], first compound 0.1 µg/mL, partner 5 µg/mL	0.555
S. aureus DSM 20231 [2], first compound 0.2 µg/mL, partner 1.25 µg/mL	0.661
S. aureus DSM 20231 [2], first compound 0.2 µg/mL, partner 2.5 µg/mL	0.613
S. aureus DSM 20231 [2], first compound 0.2 µg/mL, partner 5 µg/mL	0.329
S. aureus DSM 20231 [2], first compound 0.4 µg/mL, partner 2.5 µg/mL	0.195
S. aureus DSM 20231 [2], first compound 0.4 µg/mL, partner 5 µg/mL	0.0887
S. pneumoniae D39V [3], first compound 0.215 µg/mL, partner 0.325 µg/mL	0.877
S. pneumoniae D39V [3], first compound 0.215 µg/mL, partner 0.65 µg/mL	0.855
S. pneumoniae D39V [3], first compound 0.215 µg/mL, partner 1.3 µg/mL	0.741
S. pneumoniae D39V [3], first compound 0.43 µg/mL, partner 0.325 µg/mL	0.575
S. pneumoniae D39V [3], first compound 0.43 µg/mL, partner 0.65 µg/mL	0.794
S. pneumoniae D39V [3], first compound 0.43 µg/mL, partner 1.3 µg/mL	0.665
S. pneumoniae D39V [3], first compound 0.86 µg/mL, partner 0.325 µg/mL	0.535
S. pneumoniae D39V [3], first compound 0.86 µg/mL, partner 0.65 µg/mL	0.489
S. pneumoniae D39V [3], first compound 0.86 µg/mL, partner 1.3 µg/mL	0.329

fitness, S. pneumoniae D39V [3], one replicate
Conditions	first compound 0.2 µg/mL	first compound 0.4 µg/mL	first compound 0.8 µg/mL
partner 0.325 µg/mL	0.818	0.7	0.661
partner 0.65 µg/mL	0.855	0.747	0.69

Conditions	Bliss interaction score
B. subtilis 168 [4]	0.0751
S. aureus DSM 20231 [5]	-0.1
S. aureus Newman	-0.229
S. pneumoniae D39V [6]	0.113

CCC[C@@H]1C[C@@H](C(=O)N[C@@H]([C@H]2O[C@H](SC)[C@H](O)[C@@H](O)[C@H]2O)[C@@H](C)O)N(C)C1 [Lincomycin] + CN(N=O)C(=O)N[C@@H](C=O)[C@@H](O)[C@H](O)[C@H](O)CO [Streptozotocin]
fitness
Conditions	first compound 0.1 µg/mL	first compound 0.2 µg/mL	first compound 0.215 µg/mL	first compound 0.4 µg/mL	first compound 0.43 µg/mL	first compound 0.86 µg/mL
B. subtilis 168 [1], partner 0.15 µg/mL	0.957	0.99	–	0.994	–	–
B. subtilis 168 [1], partner 0.3 µg/mL	0.966	0.93	–	0.997	–	–
B. subtilis 168 [1], partner 0.6 µg/mL	0.956	0.953	–	0.99	–	–
S. aureus DSM 20231 [2], partner 0.15 µg/mL	0.804	0.635	–	0.282	–	–
S. aureus DSM 20231 [2], partner 0.3 µg/mL	0.796	0.611	–	0.267	–	–
S. aureus DSM 20231 [2], partner 0.6 µg/mL	0.708	0.565	–	0.177	–	–
S. pneumoniae D39V [3], partner 1.2 µg/mL	–	–	0.752	–	0.664	0.148
S. pneumoniae D39V [3], partner 2.4 µg/mL	–	–	0.754	–	0.661	0.261
S. pneumoniae D39V [3], partner 4.8 µg/mL	–	–	0.793	–	0.705	0.237

fitness, S. pneumoniae D39V [3], one replicate
Conditions	first compound 0.2 µg/mL	first compound 0.4 µg/mL	first compound 0.8 µg/mL
partner 1.2 µg/mL	0.767	0.683	0.181
partner 2.4 µg/mL	0.734	0.683	0.273
partner 4.8 µg/mL	0.639	0.553	0

Conditions	Bliss interaction score
B. subtilis 168 [4]	-0.0171
S. aureus DSM 20231 [5]	0.0558
S. aureus Newman	0.125
S. pneumoniae D39V [6]	-0.138
